Experiments:
Conditions in all cases: incubation time: 72 h
MDA-MB-436 = assay: drug sensitivity score (DSS), CellTiter-Glo (DSS (AUC-based score)); higher = stronger drug effect (viability inhibition or cytotoxicity); extreme values may be limits of the assay
In short: (§1)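 Breast cancer cells were seeded into 384-well plates containing compound at 5 concentrations in 10-fold steps over a compound-specific 10,000-fold range and incubated 72 h. After CellTox Green and CellTiter-Glo readings, each plate was normalised to 0.1 % DMSO and a positive kill control. The drug sensitivity score rests on the area under the fitted dose-response curve.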

MFM-223 = assay: as above
In short: as §1

HCC1937 = assay: as above
In short: as §1

CAL-85-1 = assay: as above
In short: as §1

CAL-51 = assay: as above
In short: as §1

HCC1599 = assay: as above
In short: as §1

DU-4475 = assay: normalised response (% of control), CellTiter-Glo; higher = more viable cells (100 = DMSO, 0 = benzethonium chloride kill control)
In short: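 Breast cancer cell lines, seeded at 20 µl suspension per well, were incubated for 72 h in 384-well plates containing compound at 5 concentrations. These concentrations rose in 10-fold steps over a 10,000-fold range set for each compound. CellTox Green fluorescence (485/520 nm) was read, then CellTiter-Glo luminescence after 10 min at room temperature, and each plate was normalised to 0.1 % DMSO (100) and a positive kill control (0). Values are normalised signals, each at one concentration.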

## CC(C)(C)Cn1c(N)nc2ccc(-c3[nH]c(C(C)(C)C)nc3-c3ccc(F)cc3)nc21
MDA-MB-436
  drug sensitivity score: 0
MFM-223
  drug sensitivity score: 1.18
HCC1937
  drug sensitivity score: 0
CAL-85-1
  drug sensitivity score: 0
CAL-51
  drug sensitivity score: 0
HCC1599
  drug sensitivity score: 0

## Cn1cc(C[C@@H](N)C(=O)O)c2ccccc21 [1-methyl-D-tryptophan]
MDA-MB-436
  drug sensitivity score: 0
MFM-223
  drug sensitivity score: 0
HCC1937
  drug sensitivity score: 0
CAL-85-1
  drug sensitivity score: 0
CAL-51
  drug sensitivity score: 0
HCC1599
  drug sensitivity score: 0

## CC[C@H](CC#N)OC(=O)N[C@@H](C)c1cccc(NC(=O)Nc2ccc(-c3cnco3)c(OC)c2)c1 [AVN944]
MDA-MB-436
  drug sensitivity score: 12.9
MFM-223
  drug sensitivity score: 6.05
HCC1937
  drug sensitivity score: 9.9
CAL-85-1
  drug sensitivity score: 13.1
CAL-51
  drug sensitivity score: 16.5
HCC1599
  drug sensitivity score: 11.4

## Cc1c(N)nc([C@H](CC(N)=O)NC[C@H](N)C(N)=O)nc1C(=O)N[C@H](C(=O)N[C@H](C)[C@@H](O)[C@H](C)C(=O)N[C@H](C(=O)NCCc1nc(-c2nc(C(=O)NCCC[S+](C)C)cs2)cs1)[C@@H](C)O)[C@@H](OC1OC(CO)C(O)C(O)C1OC1OC(CO)C(O)C(OC(N)=O)C1O)c1cnc[nH]1 (stereo partly drawn) [Bleomycin] (1000 nM)
DU-4475
  normalised response: 92.1%

## Cc1cc2c(F)c(Oc3ncnn4cc(OC[C@@H](C)O)c(C)c34)ccc2[nH]1 [Brivanib] (100 nM)
DU-4475
  normalised response: 101%

## CCCCCOC(=O)Nc1nc(=O)n([C@@H]2O[C@H](C)[C@@H](O)[C@H]2O)cc1F [Capecitabine] (1000 nM)
DU-4475
  normalised response: 98.6%

## CC(C)C[C@H](NC(=O)[C@H](CCc1ccccc1)NC(=O)CN1CCOCC1)C(=O)N[C@@H](Cc1ccccc1)C(=O)N[C@@H](CC(C)C)C(=O)[C@@]1(C)CO1 [Carfilzomib] (100 nM)
DU-4475
  normalised response: 14.6%

## Nc1nc(Cl)nc2c1ncn2[C@@H]1O[C@H](CO)[C@@H](O)[C@@H]1F [Clofarabine] (1000 nM)
DU-4475
  normalised response: 70.9%

## CCN(CC)CCOc1ccc(C(=C(Cl)c2ccccc2)c2ccccc2)cc1 [Clomifene] (1000 nM)
DU-4475
  normalised response: 97.4%

## C[C@@H]1C[C@H]2[C@@H]3CCC4=CC(=O)C=C[C@]4(C)[C@@]3(F)[C@@H](O)C[C@]2(C)[C@@]1(O)C(=O)CO [Dexamethasone] (1000 nM)
DU-4475
  normalised response: 96.2%

## CCc1cnn2c(NCc3ccc[n+]([O-])c3)cc(N3CCCC[C@H]3CCO)nc12 [Dinaciclib]
MDA-MB-436
  drug sensitivity score: 20.7
MFM-223
  drug sensitivity score: 17.8
HCC1937
  drug sensitivity score: 14.9
CAL-85-1
  drug sensitivity score: 25.4
CAL-51
  drug sensitivity score: 20.6
HCC1599
  drug sensitivity score: 19.8

## Cc1c(C(=O)Nc2ccc(N3C[C@@H](C)O[C@@H](C)C3)nc2)cccc1-c1ccc(OC(F)(F)F)cc1 [Erismodegib]
MDA-MB-436
  drug sensitivity score: 2.73
MFM-223
  drug sensitivity score: 1.41
HCC1937
  drug sensitivity score: 0
CAL-85-1
  drug sensitivity score: 0
CAL-51
  drug sensitivity score: 4.99
HCC1599
  drug sensitivity score: 0

## CC(C)C(=O)Nc1ccc([N+](=O)[O-])c(C(F)(F)F)c1 [Flutamide] (1000 nM)
DU-4475
  normalised response: 95.9%

## COc1cc2c(Oc3ccc(NC(=O)C4(C(=O)Nc5ccc(F)cc5)CC4)cc3F)ccnc2cc1OCCCN1CCOCC1 [Foretinib] (100 nM)
DU-4475
  normalised response: 99.9%

## COc1cc(Nc2ncc(F)c(Nc3ccc4c(n3)N(COP(=O)(O)O)C(=O)C(C)(C)O4)n2)cc(OC)c1OC [Fostamatinib]
MDA-MB-436
  drug sensitivity score: 0
MFM-223
  drug sensitivity score: 7.93
HCC1937
  drug sensitivity score: 1.88
CAL-85-1
  drug sensitivity score: 2.69
CAL-51
  drug sensitivity score: 0
HCC1599
  drug sensitivity score: 0

## CC(C)NC[C@@H](C(=O)N1CCN(c2ncnc3c2[C@H](C)C[C@H]3O)CC1)c1ccc(Cl)cc1 [GDC-0068]
MDA-MB-436
  drug sensitivity score: 1.1
MFM-223
  drug sensitivity score: 16.6
HCC1937
  drug sensitivity score: 3.46
CAL-85-1
  drug sensitivity score: 2.16
CAL-51
  drug sensitivity score: 8.39
HCC1599
  drug sensitivity score: 0

## CCCc1cc(C)[nH]c(=O)c1CNC(=O)c1cc(-c2ccnc(N3CCN(C)CC3)c2)cc2c1cnn2C(C)C [GSK343]
MDA-MB-436
  drug sensitivity score: 1.6
MFM-223
  drug sensitivity score: 2.85
HCC1937
  drug sensitivity score: 0
CAL-85-1
  drug sensitivity score: 1.9
CAL-51
  drug sensitivity score: 0
HCC1599
  drug sensitivity score: 3.37

## NC(=O)NO [Hydroxyurea] (10000 nM)
DU-4475
  normalised response: 100%

## COc1cc2c(cc1-c1c(C)noc1C)ncc1[nH]c(=O)n([C@H](C)c3ccccn3)c12 [I-BET151]
MDA-MB-436
  drug sensitivity score: 0
MFM-223
  drug sensitivity score: 6.13
HCC1937
  drug sensitivity score: 2.32
CAL-85-1
  drug sensitivity score: 8.93
CAL-51
  drug sensitivity score: 3.89
HCC1599
  drug sensitivity score: 0

## CC(C)n1nc(-c2ccc3oc(N)nc3c2)c2c(N)ncnc21 [INK128]
MDA-MB-436
  drug sensitivity score: 11.3
MFM-223
  drug sensitivity score: 15.5
HCC1937
  drug sensitivity score: 8.72
CAL-85-1
  drug sensitivity score: 14.2
CAL-51
  drug sensitivity score: 16.5
HCC1599
  drug sensitivity score: 4.56

## O=NN(CCCl)C(=O)NC1CCCCC1 [Lomustine] (1000 nM)
DU-4475
  normalised response: 99.2%

## O=C(O)CC[C@H]1CC[C@@](c2cc(F)ccc2F)(S(=O)(=O)c2ccc(Cl)cc2)CC1 [MK-0752] (100 nM)
DU-4475
  normalised response: 99.2%

## NC1(c2ccc(-c3nc4ccn5c(=O)[nH]nc5c4cc3-c3ccccc3)cc2)CCC1 [MK-2206] (100 nM)
DU-4475
  normalised response: 97.5%

## NC(=O)c1cccc2cn(-c3ccc([C@@H]4CCCNC4)cc3)nc12 [MK-4827] (1000 nM)
DU-4475
  normalised response: 86%

## O=C(c1cc(Cc2n[nH]c(=O)c3ccccc23)ccc1F)N1CCN(C(=O)C2CC2)CC1 [Olaparib] (1000 nM)
DU-4475
  normalised response: 92.5%

## CO[C@H](C(=O)[C@@H](O)[C@@H](C)O)[C@@H]1Cc2cc3cc(O[C@H]4C[C@@H](O[C@@H]5C[C@@H](O)[C@H](O)[C@@H](C)O5)[C@H](O)[C@@H](C)O4)c(C)c(O)c3c(O)c2C(=O)[C@H]1O[C@H]1C[C@@H](O[C@@H]2C[C@@H](O)[C@@H](O[C@@H]3C[C@](C)(O)[C@H](O)[C@@H](C)O3)[C@@H](C)O2)[C@H](O)[C@@H](C)O1 [Plicamycin] (1000 nM)
DU-4475
  normalised response: 99.2%

## C[C@]12C=CC(=O)C=C1CC[C@@H]1[C@@H]2C(=O)C[C@@]2(C)[C@H]1CC[C@]2(O)C(=O)CO [Prednisone] (1000 nM)
DU-4475
  normalised response: 99%

## CN1CCN(c2nc(C3=C(c4c[nH]c5ccccc45)C(=O)NC3=O)c3ccccc3n2)CC1 [Sotrastaurin] (1000 nM)
DU-4475
  normalised response: 86.4%

## COc1cc2c(N3CCN(C(=O)Nc4ccc(OC(C)C)cc4)CC3)ncnc2cc1OCCCN1CCCCC1 [Tandutinib] (100 nM)
DU-4475
  normalised response: 99.7%

## C[C@@H](C(=O)O)c1ccc(-c2ccccc2)c(F)c1 [Tarenflurbil] (1000 nM)
DU-4475
  normalised response: 94.6%

## Cn1nnc2c(C(N)=O)ncn2c1=O [Temozolomide] (1000 nM)
DU-4475
  normalised response: 95%

## CN1CCc2c(c3ccccc3n2Cc2ccc(C(=O)NO)cc2)C1 [Tubastatin A]
MDA-MB-436
  drug sensitivity score: 0
MFM-223
  drug sensitivity score: 0
HCC1937
  drug sensitivity score: 1.2
CAL-85-1
  drug sensitivity score: 0.989
CAL-51
  drug sensitivity score: 11.2
HCC1599
  drug sensitivity score: 0

## CC[C@@H]1C(=O)N(C)c2cnc(Nc3ccc(C(=O)N[C@H]4CC[C@H](N5CCN(CC6CC6)CC5)CC4)cc3OC)nc2N1C(C)C [Volasertib] (100 nM)
DU-4475
  normalised response: 49.1%
